Reference: PubChem BioAssay (NCI)
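The compound was tested at five concentrations on cells cultured in 96-well plates, with a 48-hour exposure period. Here, GI50 denotes the concentration required for 50% inhibition of growth. The concentration for full growth arrest is given as TGI.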

Legend:
Experiment in all cases: inhibition of tumour cell growth, NCI panel, 48 h
786-0 renal = tested on: 786-0 renal
ACHN renal = tested on: ACHN renal
EKVX NSCLC = tested on: EKVX NSCLC
RXF 393 renal = tested on: RXF 393 renal
SF-295 CNS = tested on: SF-295 CNS
SK-MEL-5 melanoma = tested on: SK-MEL-5 melanoma
SK-OV-3 ovarian = tested on: SK-OV-3 ovarian
SNB-75 CNS = tested on: SNB-75 CNS
SK-MEL-2 melanoma = tested on: SK-MEL-2 melanoma
SN12C renal = tested on: SN12C renal

SMILES	GI50 (786-0 renal) [µM]	TGI (786-0 renal) [µM]	GI50 (ACHN renal) [µM]	TGI (ACHN renal) [µM]	GI50 (EKVX NSCLC) [µM]	TGI (EKVX NSCLC) [µM]	GI50 (RXF 393 renal) [µM]	TGI (RXF 393 renal) [µM]	GI50 (SF-295 CNS) [µM]	TGI (SF-295 CNS) [µM]	GI50 (SK-MEL-5 melanoma) [µM]	TGI (SK-MEL-5 melanoma) [µM]	GI50 (SK-OV-3 ovarian) [µM]	TGI (SK-OV-3 ovarian) [µM]	GI50 (SNB-75 CNS) [µM]	TGI (SNB-75 CNS) [µM]	GI50 (SK-MEL-2 melanoma) [µM]	TGI (SK-MEL-2 melanoma) [µM]	GI50 (SN12C renal) [µM]	TGI (SN12C renal) [µM]
NC(=O)CNc1ccc([As]=[As]c2ccc(NCC(N)=O)cc2)cc1 (configuration not stated)	3.21	14.3	11.6	30.3	4.83	90.9	3.04	16.4	8.91	36.9	1.95	5.17	22.6	71.4	1.73	9.13				
CN(C)CCNc1nc2ccccc2c2c(=O)c3cc(F)ccc3sc12	1.47	2.91	1.65	3.01			1.45	2.83	1.76	3.22	1.7	3.08			1.45	2.8	2.05	4.06	1.57	3
CC1(C)N=C(N)N=C(N)N1c1cccc(OCCOc2cccc([N+](=O)[O-])c2)c1	37	> 100	> 100	> 100			35.2	> 100	15	> 100	4.5	33.5	> 56.4	> 100	3.26	> 100	15.2	> 100	4.04	> 100
O=C1/C(=C/N2N=C(c3ccc4ccccc4c3)CC2c2ccccc2O)SC(=S)N1c1cccnc1 (configuration not stated)	0.492	> 100	1.65	> 100			1.6	8.19	2.63	> 100	3.01	39	5.95	> 100	0.987	13.1			2.22	> 100
C=CCC1(C)CCCCC1(O)CS(=O)c1ccccc1 (configuration not stated)		> 100		> 100		> 100		> 100		> 100		> 100		> 100		> 100				> 100
Nc1ccc(C2=N/C(=C\c3cccc(N)c3)C(=O)O2)cc1		> 100		> 100		> 100		> 100		> 100		> 100		> 100				> 100		> 100
CNCCn1c(=O)c2cc(OC)c(OC)cc2c2cnc3cc4c(cc3c21)OCO4	< 0.01	0.0168	< 0.01	1.12			< 0.01	0.0352	< 0.01	< 0.0155	0.01	0.0254	< 0.0104	1.82	< 0.01	0.0658	2.32	4.91	< 0.01	1.25
COC(=O)[C@]12CC[C@@H](C)[C@H](C)[C@@H]1C1=CC[C@@H]3[C@@]4(C)C(C=O)=C[C@@](C)(COC(=O)c5ccco5)[C@@H]4[C@H](O)C[C@@]3(C)[C@]1(C)CC2	2.4	7.13	1.13	3.78	3.02	13.8			1.95	4.69	0.453	1.65	3.64	18.3	1.49	4.12	0.423	1.9	3.44	83.2
O=C(NC1CCCCC1)c1ccc(Nc2ncnc3c2cnn3-c2ccccc2)cc1	3.47	18.3	3.32	11			2.43	9.33	2.98	13.3	21.7	> 100	2.95	8.7	1.71	5.4	13.6	36.2	8.26	> 100
COc1ccc(-c2noc(N)c2-c2cc(OC)c3c(c2)OCO3)cc1	8.36	> 100	6.88	> 100			2.6	15	2.64	28.6	3.14	21.2	4.54	> 38.3	1.74	7.03	1.51	6.83	4.14	> 100
NC(=S)N/N=C1\CCCC\C1=C/c1ccccc1		> 100		> 100		> 100		> 100		> 100				> 100		> 100		> 100		> 100
COC(=O)c1c[nH]cc1CCCCc1c[nH]cc1C(=O)OC		> 100		> 100		> 100		> 100		> 100				> 100				> 100		> 100
CCc1cccc(C)c1NC(=O)CC1C(=O)Nc2ccccc2S1=O (configuration not stated)		> 100		> 100						97.6						> 100		> 100		> 100
O=C(NNc1cnccn1)c1nc2cc(F)ccc2n2cccc12	0.572	> 100	0.362	> 100	0.387	> 100			0.531	> 100	1.07	3.13	0.522	> 100	1.31	> 30.4	1.61	> 100	0.925	> 100
CCC[CH2][Sn]1([CH2]CCC)[O]CC(COc2c(Cl)cc(Cl)cc2Cl)[O]1 (configuration not stated)	1.41	2.74	1.77	3.17	5.51	17.3	1.27	2.73	1.9	3.37			4.18	12.3	1.17	3.77	0.58	1.91	1.75	3.27
COc1ccc(-c2cc(-c3ccc(Nc4ccnc5cc(Cl)ccc45)cc3)nc(N3CCOCC3)n2)cc1	2.26	5.72			> 100	> 100	2.21	5.35					34.8	> 100	1.52	5.32	11.7	61.5		
